US10689377B2 (Mirati Therapeutics, Inc., priority 2017, dated 2020)
Like-named read-outs stand apart in the source and are kept apart here.

Legend:
KRas G12C [1] = biological target: KRas G12C (Homo sapiens, UniProt P01116, C118S/C51S/C80L/G12C); experiment: KRas G12C Modification Assay (LCMS detection of covalent adduct); assay type: binding
Procedure: A 10 μL aliquot of each protein solution was then transferred to a 384 well microtiter plate. Initial compound stocks were generated at fifty times their desired final assay concentration in DMSO.
Exemplary compounds of Formula (I) were diluted 25-fold into K-Ras Assay Buffer to a final of two times their final concentration. A 10 μL aliquot of each diluted compound solution was then added to each of the protein solutions in the microtiter plate to initiate reaction. […] At each time point, the reactions were quenched with 20 μL of a 25 mM acetic acid solution. […] Once all reactions were quenched, the plates were heat sealed and the samples were injected into a LC/MS system for data acquisition.
Samples were injected in their liquid phase onto a C-3 reverse phase column to remove assay buffer and prepare the samples for mass spectrometer. The proteins were eluted from the column using an acetonitrile gradient and fed directly into the mass analyzer. Initial raw data analysis took place in Agilent MassHunter software immediately post data acquisition.
Raw data analysis of the intact protein was exclusively a deconvolution of the multiple charge states of each protein in solution using a maximum entropy deconvolution provided in Mass Hunter. To minimize complexity, only the data over limited mass ranges were considered for analysis, with a minimum of one Dalton mass step intervals. The heights of all masses identified during raw data analysis were exported to be further analyzed in Spotfire® data analysis software.
Final data analysis was a multistep process in the Spotfire® data analysis software package. Briefly, each protein mass was calculated as a percent of the total signal of that sample, that percentage was then normalized to the percentage of signal of the protein in the absence of reactive compounds. Those normalized signals were reported as normalized percent of control (POC). […] Key: “A”≤25% POC; “B”>25% POC-≤50% POC; “C”>50% POC and ND=not determined.

KRas G12C [2] = biological target: KRas G12C (Homo sapiens, UniProt P01116, G12C); experiment: Cellular inhibition of KRas G12C measured by Phospho-ERK in NCI-H358 cells; assay type: cell-based
Procedure, shortened: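 Following 8-12 h attachment, NCI-H358 cells got serially diluted compound (0.5% DMSO) for 3 hours. Cells were then fixed, permeabilized with cold methanol, and stained for pERK(Thr202/Tyr204) and GAPDH. Ratios were converted to percent of DMSO control, with IC50 obtained by four-parameter regression.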

[3] = normalized percent of control, 5 μM concentration for 3 hours
[4] = pERK(Thr202/Tyr204) normalized with GAPDH, NCI-H358 cells, 3 hours, read-out: IC50

POC (KRas G12C [1]; [3])	IC50 (KRas G12C [2]; [4])	SMILES	POC (KRas G12C [1]; 5 µM)	IC50 (KRas G12C [2]; IC50)
C (“C”>50% POC)	0.1 to 1000 nM	C=C(F)C(=O)N1CCN(c2nc(OCCCN3C[C@@H]4C[C@H]3CO4)nc3c2CCN(c2cccc4cccc(Cl)c24)C3)C[C@@H]1CC#N [Example 564, 2-[(2S)-4-[7-(8-Chloro-1-naphthyl)-2-[3-[(1S,4S)-2-oxa-5-azabicyclo[2.2.1]heptan-5-yl]propoxy]-6,8-dihydro-5H-pyrido[3,4-d]pyrimidin-4-yl]-1-(2-fluoroprop-2-enoyl)piperazin-2-yl]acetonitrile]		
C (“C”>50% POC)	0.1 to 1000 nM	C=C(F)C(=O)N1CCN(c2nc(OC[C@@H]3CCCN3Cc3ccccc3)nc3c2CCN(c2cccc4cccc(C)c24)C3)C[C@@H]1CC#N [Example 596, 2-((S)-4-(2-(((S)-1-Benzylpyrrolidin-2-yl)methoxy)-7-(8-methylnaphthalen-1-yl)-5,6,7,8-tetrahydropyrido[3,4-d]pyrimidin-4-yl)-1-(2-fluoroacryloyl)piperazin-2-yl)acetonitrile]		
C (“C”>50% POC)	0.1 to 1000 nM	C=C(F)C(=O)N1CCN(c2nc(OC[C@H]3C[C@@H](F)CN3C)nc3c2CCN(c2cccc4cccc(Cl)c24)C3)C[C@@H]1CC#N [Example 558, 2-((S)-4-(7-(8-Chloronaphthalen-1-yl)-2-(((2R,4R)-4-fluoro-1-methylpyrrolidin-2-yl)methoxy)-5,6,7,8-tetrahydropyrido[3,4-d]pyrimidin-4-yl)-1-(2-fluoroacryloyl)piperazin-2-yl)acetonitrile]		
C (“C”>50% POC)	> 1000 nM	C=C(F)C(=O)N1CCN(c2nc(OC[C@@H]3CCCN3C)nc3c2CCN(c2cccc4cccc(CO)c24)C3)C[C@@H]1CC#N [Example 567, 2-[(2S)-1-(2-Fluoroprop-2-enoyl)-4-[7-[8-(hydroxymethyl)-1-naphthyl]-2-[[(2S)-1-methylpyrrolidin-2-yl]methoxy]-6,8-dihydro-5H-pyrido[3,4-d]pyrimidin-4-yl]piperazin-2-yl]acetonitrile]		
C (“C”>50% POC)	0.1 to 1000 nM	Cc1cccc2cccc(N3CCc4c(nc(OC[C@H]5CCCN5C)nc4N4CCN(C(=O)/C=C/CF)[C@@H](CC#N)C4)C3)c12 [Example 563, 2-[(2S)-1-[(E)-4-Fluorobut-2-enoyl]-4-[7-(8-methyl-1-naphthyl)-2-[[(2R)-1-methylpyrrolidin-2-yl]methoxy]-6,8-dihydro-5H-pyrido[3,4-d]pyrimidin-4-yl]piperazin-2-yl]acetonitrile]		
C (“C”>50% POC)	0.1 to 1000 nM	Cc1cccc2cccc(N3CCc4c(nc(OC[C@@H]5CCCN5C)nc4N4CCN(C(=O)/C=C/c5cccnc5)[C@@H](CC#N)C4)C3)c12 [Example 496, 2-((S)-4-(7-(8-methylnaphthalen-1-yl)-2-(((S)-1-methylpyrrolidin-2-yl)methoxy)-5,6,7,8-tetrahydropyrido[3,4-d]pyrimidin-4-yl)-1-((E)-3-(pyridin-3-yl)acryloyl)piperazin-2-yl)acetonitrile]		
C (“C”>50% POC)	0.1 to 1000 nM	Cc1cccc2cccc(N3CCc4c(nc(OCCCN5C[C@@H]6C[C@H]5CO6)nc4N4CCN(C(=O)/C=C/CF)[C@@H](CC#N)C4)C3)c12 [Example 565, 2-[(2S)-1-[(E)-4-Fluorobut-2-enoyl]-4-[7-(8-methyl-1-naphthyl)-2-[3-[(1S,4S)-2-oxa-5-azabicyclo[2.2.1]heptan-5-yl]propoxy]-6,8-dihydro-5H-pyrido[3,4-d]pyrimidin-4-yl]piperazin-2-yl]acetonitrile]		

Further lines, the compound ahead of its results:

SMILES	POC (KRas G12C [1]; [3])	IC50 (KRas G12C [2]; [4])	POC (KRas G12C [1]; 5 µM)	IC50 (KRas G12C [2]; IC50)
C=CC(=O)N1CCN(c2nc(OCCCN3CCOCC3)nc3c2CCN(c2c(C(F)(F)F)ccc4[nH]ncc24)C3)CC1 [Example 180, 1-[4-[2-(3-morpholinopropoxy)-7-[5-(trifluoromethyl)-1H-indazol-4-yl]-6,8-dihydro-5H-pyrido[3,4-d]pyrimidin-4-yl]piperazin-1-yl]prop-2-en-1-one]	C (“C”>50% POC)	0.1 to 1000 nM		
C=C(F)C(=O)N1CCN(c2nc(OC[C@@H]3CCC(=O)N3C)nc3c2CCN(c2cccc4cccc(Cl)c24)C3)C[C@@H]1CC#N [Example 572, 2-[(2S)-4-[7-(8-Chloro-1-naphthyl)-2-[[(2S)-1-methyl-5-oxo-pyrrolidin-2-yl]methoxy]-6,8-dihydro-5H-pyrido [3,4-d]pyrimidin-4-yl]-1-(2-fluoroprop-2-enoyl)piperazin-2-yl] acetonitrile]	C (“C”>50% POC)	> 1000 nM		
C=CC(=O)N1CCN(c2nc(OC[C@@H]3CCCN3C(C)C)nc3c2CCN(c2cccc4ccccc24)C3)CC1CC#N (stereo partly drawn) [Example 252, 2-[4-[2-[[(2S)-1-isopropylpyrrolidin-2-yl]methoxy]-7-(1-naphthyl)-6,8-dihydro-5H-pyrido[3,4-d]pyrimidin-4-yl]-1-prop-2-enoyl-piperazin-2-yl]acetonitrile]	C (“C”>50% POC)	0.1 to 1000 nM		
C=C(F)C(=O)N1CCN(c2nc(OC[C@@H]3CC(F)(F)CN3C)nc3c2CCN(c2cccc4cccc(Cl)c24)C3)C[C@@H]1CC#N [Example 543]	C (“C”>50% POC)	0.1 to 1000 nM		
C=C(F)C(=O)N1CCN(c2nc(OC[C@@H]3CCCN3C)nc3c2CCN(c2nccc4cccc(Br)c24)C3)C[C@@H]1CC#N [Example 594, 2-((S)-4-(7-(8-Bromoisoquinolin-1-yl)-2-(((S)-1-methylpyrrolidin-2-yl)methoxy)-5,6,7,8-tetrahydropyrido[3,4-d]pyrimidin-4-yl)-1-(2-fluoroacryloyl)piperazin-2-yl)acetonitrile]	A (“A”≤25% POC)	> 1000 nM		
C=CC(=O)N1CCN(c2nc(OC[C@@H]3CCCN3C)nc3c2CCN(c2ncccc2C(F)(F)F)C3)CC1CC#N (stereo partly drawn) [Example 373, 2-(1-acryloyl-4-(2-(((S)-1-methylpyrrolidin-2-yl)methoxy)-7-(3-(trifluoromethyl)pyridin-2-yl)-5,6,7,8-tetrahydropyrido[3,4-d]pyrimidin-4-yl)piperazin-2-yl)acetonitrile]	C (“C”>50% POC)	> 1000 nM		
C=C(F)C(=O)N1CCN(c2nc(OC[C@@H]3CCCN3C)nc3c2CCN(c2cccc4ccnc(Cl)c24)C3)C[C@@H]1CC#N [Example 595, 2-((S)-4-(7-(1-chloroisoquinolin-8-yl)-2-(((S)-1-methylpyrrolidin-2-yl)methoxy)-5,6,7,8-tetrahydropyrido[3,4-d]pyrimidin-4-yl)-1-(2-fluoroacryloyl)piperazin-2-yl)acetonitrile]	C (“C”>50% POC)	0.1 to 1000 nM		
C=CC(=O)N1CCN(c2nc(OC[C@@H]3CCN(C)C3)nc3c2CCN(c2cccc4ccccc24)C3)CC1CC#N (stereo partly drawn) [Example 177, 2-[4-[2-[[(3R)-1-methylpyrrolidin-3-yl]methoxy]-7-(1-naphthyl)-6,8-dihydro-5H-pyrido[3,4-d]pyrimidin-4-yl]-1-prop-2-enoyl-piperazin-2-yl]acetonitrile]	C (“C”>50% POC)	0.1 to 1000 nM		
C=CC(=O)N1CCN(c2nc(OCCN(C)C)nc3c2CCN(c2cc(O)cc4ccccc24)C3)CC1CCO (centres unmarked) [Example 171, 1-(4-(2-(2-(dimethylamino)ethoxy)-7-(3-hydroxynaphthalen-1-yl)-5,6,7,8-tetrahydropyrido[3,4-d]pyrimidin-4-yl)-2-(2-hydroxyethyl)piperazin-1-yl)prop-2-en-1-one]			C (key: “A”≤25% POC; “B”>25% POC-≤50% POC; “C”>50% POC)	> 1000 nM
